# Results reported in patent US20160376632A1, “KINASE ACTIVITY DETECTION METHODS” (REGENTS OF THE UNIVERSITY OF MINNESOTA, priority 2014, published 2016).
# *1 amine or outer side, *2 acyl side, *3 side chain or, on linkers, in order; H or OH if unused. [ ]: non-standard residue; d: D form. The star is where a group is joined. Kb = biotinyl-L-lysine, O=C(CCCC[C@@H]1SC[C@@H]2NC(=O)N[C@@H]21)NCCCC[C@H](N[*:1])C(=O)[*:2]; 5FAM = O=C1OC2(c3ccc(O)cc3Oc3cc(O)ccc32)c2ccc(C(=O)*)cc21; Ahx = NCCCCCC(=O)O
# How the values were obtained:
# [1] = Determination of LRET distance from Tb3+ luminescence lifetimes; type: physicochemical; details: for Energy Transfer: E from lifetimes; for Ro: Förster distance; for τDA: Tb3+ luminescence lifetime of donor in presence of acceptor fluorophore; for τD: Tb3+ luminescence lifetime of donor without acceptor fluorophore; for R: estimated distance between Tb3+ and fluorophore
# Source text: The Tb^3+ luminescence lifetimes of the biosensors in their fluorophore conjugated and unconjugated forms were used to characterize the energy transfer and LRET parameters for each sensor (FIGS. 12A, 12B and 12C). LRET follows the same principles as FRET and can have the same theory applied to calculate the distance between the fluorophore acceptor and the terbium-peptide complex donor pair. The fundamental concept of Förster theory is resonance energy transfer is proportional to
# where the percentage of energy transfer, E, can be determined from the lifetime measurements of the donor in the absence of the acceptor (peptide-terbium complex (donor) without the conjugated fluorophore (acceptor)) and the donor in the presence of the acceptor.
# R0 the Förster distance is determined for each acceptor/donor pair and d
# The luminescence decay rates peptide biosensor-Tb^3+ complexes with and without fluorophore conjugation are illustrated in FIG. 12A pSAStide-AF488:Tb^3+, FIG. 12B pSAStide-Cy5 and FIG. 12C 5-FAM-pSFAStide-A. Data represent the average±SEM of three individual replicates.
# [2] = target: T1, Syk (Homo sapiens, UniProt P43405); test: ELISA-based chemifluorescent detection of substrate phosphorylation, Syk; type: biochemical; details: anti-phosphotyrosine 4G10, Amplex Red
# T1 construct: EGFP (C)
# Method: (§1) Phosphorylation of SAStide and SFAStide-A were detected using a chemifluorescent ELISA-based assay (Lipchik et al. J Am Chem. Soc 2015, 137, 2484) in which the reaction mixture was quenched using EDTA and incubated in a 96-well neutravidin coated-plate to allow for affinity capture of the biotinylated substrates individually. The total amount of peptide in the quenched reaction mixture applied to each well was 37.5 pmol, which ensured that each well was saturated with peptide (15 pmol binding capacity) for analysis. The captured peptide was then incubated an anti-phosphotyrosine primary antibody (4G10) followed by a horseradish peroxidase-conjugated secondary antibody. Chemifluorescent detection was accomplished by incubating each well with Amplex Red reagent and hydrogen peroxide in phosphate buffer, which gave a fluorescent signal proportional to the amount of horseradish peroxidase-conjugated antibody in each well, and thus reports the degree of phosphotyrosine present.
# (§2) The Validation of in vitro specificity of SAStide-Cy5 and 5-FAM-SFAStide-A using ELISA-based chemifluorescence is illustrated in FIG. 14. […] Aliquots were removed at designated time points, quenched with EDTA and alongside the TR-LRET detection as described in FIGS. 3A-F in the main text, the amount of phosphorylated substrate was also measured using ELISA-based detection.
# [3] = target: Lyn (Homo sapiens, UniProt P07948); test: ELISA-based chemifluorescent detection of substrate phosphorylation, Lyn; type: biochemical; details: anti-phosphotyrosine 4G10, Amplex Red
# Method: as §1, §2
# Lyn, sequence (P07948 whole entry, species assumed): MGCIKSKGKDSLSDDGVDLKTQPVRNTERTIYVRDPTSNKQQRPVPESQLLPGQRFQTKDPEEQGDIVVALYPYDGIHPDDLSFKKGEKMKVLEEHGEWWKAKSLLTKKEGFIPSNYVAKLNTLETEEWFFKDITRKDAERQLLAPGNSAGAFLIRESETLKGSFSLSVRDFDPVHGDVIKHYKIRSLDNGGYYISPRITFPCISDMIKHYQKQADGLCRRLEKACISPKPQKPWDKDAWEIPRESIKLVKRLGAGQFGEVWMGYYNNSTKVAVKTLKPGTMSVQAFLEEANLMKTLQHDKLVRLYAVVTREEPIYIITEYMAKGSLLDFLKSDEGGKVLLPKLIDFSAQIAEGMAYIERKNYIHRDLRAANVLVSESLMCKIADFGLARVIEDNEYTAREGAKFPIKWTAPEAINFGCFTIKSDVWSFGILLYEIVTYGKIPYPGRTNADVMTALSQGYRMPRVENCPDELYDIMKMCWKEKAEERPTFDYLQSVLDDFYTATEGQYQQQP
Substance,J [1],Quantum Yield [1],Energy Transfer [1],Ro [1],τDA [1],τD [1],R [1],phosphorylation of the substrate by Syk in vitro [2],phosphorylation of the substrate by Lyn in vitro [3]
GGDEEDYEEPDEPGGCCy5GG [SAStide-Cy5],5.4 × 10^13 M^−1 cm^−1 nm^4,0.34,0.88,55.1 Å,0.088 ms,0.72 ms,39.5 Å,phosphorylated,
"5-FAM-Ahx-GGEEDEDIYEELDEPGGKbGG ({5FAM-Ahx}-GGEEDEDIYEELDEPGG[Kb]GG-NH2) [5-FAM-SFAStide-A, Src-family kinase peptide biosensor labelled with 5-carboxyfluorescein]",9.62 × 10^14 M^−1 cm^−1 nm^4,0.21,0.89,56.0 Å,0.071 ms,0.64 ms,39.5 Å,,phosphorylated
